Measured values reported in US20020071842A1, “Soluble CD1 compositions and uses thereof” (priority 2000, published 2002).

How the values were obtained:
[1] = tested on: T cell clones that are not CD1d-restricted; test: Flow cytometric staining with lipid treated multimerized CD1d-Fc aggregates; type: cell-based, human; conditions: flow cytometry; 4 T cell clones that are not CD1d-restricted
Procedure: To facilitate binding to CD1 specific T cells for detection by flow cytometry, a highly multimerized form of the CD1d fusion protein was formed using fluorescently labeled protein A molecules. Protein A molecules spontaneously associate in solution at neutral pH with immunoglobulin Fc regions, forming complexes containing four Fc molecules and two protein A molecules (4+2 complexes, reference 2). The human CD1d-Fc fusion protein was incubated with Alexa 488 dye labeled protein A, and the 4+2 complexes purified by size exclusion chromatography on a Pharmacia Superose 6 column using PBS pH 7.2 as a running buffer. The purified 4+2 aggregates were concentrated to 100 μg/ml with ovalbumin as a carrier protein. The CD1d-Fc aggregate was then pre-incubated for 24 to 48 hours at 37° C. with antigenic glycolipids dissolved in DMSO at a 40:1 molar ratio of lipid to fusion protein, or with an equivalent volume of DMSO alone as a negative control. The T cell staining was performed at room temperature or 4° C. for 20 min, at a concentration of 40 μg/ml of the lipid or control treated CD1d-Fc aggregate.
To facilitate binding to CD1 specific T cells for detection by flow cytometry, a highly multimerized form of the CD1d fusion protein is formed using fluorescently labeled protein A molecules. […]

[2] = tested on: T cell lines and clones isolated from peripheral blood; test: Functional analysis (cytokine secretion) of T cell lines and clones sorted with α-GalCer treated CD1d-Fc; type: cell-based, human; conditions: in the presence of antigen
Description: T cell lines and clones stained with the α-GalCer treated CD1d-Fc aggregates were isolated from peripheral blood by flow cytometric cell sorting and limiting dilution cloning, and cultured using standard techniques. […] Cytokine secretion was enhanced in the presence of α-GalCer.

[3] = tested on: α-GalCer reactive NKT cell hybridomas; test: Plate-bound mCD1d fusion protein hybridoma stimulation assay, hybridoma panel; type: cell-based, mouse; conditions: some of the α-GalCer reactive NKT cell hybridomas
Description: Our observation that two NKT cell hybridomas, 24.8.A and 24.9.E, differed in their antigen reactivity, raised the possibility that NKT cells may have heterogeneous antigen specificities. To extend our analysis of NKT cells, and to compare antigen recognition by mCD1d-restricted T cells of the diverse TCR population, we tested 9 NKT and 8 diverse TCR mCD1d-restricted hybridomas for recognition of 14 purified and synthetic lipid antigens (see Tables 1 and 2). None of the hybridomas produced detectable IL-2 in response to a negative control protein, and only the 24.8.A hybridoma secreted detectable IL-2 in response to untreated mCD1d fusion protein (Table 2). Eight out of nine NKT cell hybridomas were potently stimulated by α-GalCer treated fusion protein, whereas none of the diverse TCR hybridomas reproducibly recognized this antigen (Table 2). […]
IL-2 secreted in the hybridoma stimulation assays was quantitated in a double antibody sandwich ELISA, by comparison to a standard curve of purified murine IL-2 (Pharmingen, San Diego, Calif.). […] IL-2 was detected by addition of a biotinylated rat anti-mouse IL-2 antibody, followed by addition of a streptavidin-alkaline phophatase conjugate, and a chromogenic substrate. The pg/ml of IL-2 present in the hybridoma supernatants was quantitated by linear regression of the IL-2 standard curve.

Molecule | staining of non-CD1d-restricted T cell clones by lipid treated CD1d fusion protein [1] | cytokine secretion in response to CD1d-transfected antigen presenting cells [2] | activity relative to synthetic α-GalCer [3]
CCCCCCCCCCCCCCCCCCCCCCCCCC(=O)N[C@@H](CO[C@H]1O[C@H](CO)[C@H](O)[C@H](O)[C@H]1O)[C@H](O)[C@H](O)CCCCCCCCCCCCCC [α-GalCer, α-galactosylceramide] | no staining | enhanced | 
phosphatidylinositol [PI] |  |  | 10-20%
